Consider 4 compounds from PMC6770728, “CYP2D6 Genotype Predicts Plasma Concentrations of Tamoxifen Metabolites in Ethiopian Breast Cancer Patients” (Cancers, 2019).

Data set [1] is described as follows: Plasma concentrations of tamoxifen and its metabolites by LC-MS/MS in breast cancer patients on adjuvant tamoxifen. To be noted: for Plasma concentration (median + IQR): 81 Ethiopian breast cancer patients, tamoxifen 20 mg/day for at least three months; for MR E/NDM: listed as E. In kind it is in vivo, human. The protocol: This study was conducted at the radiotherapy center of Tikur Anbessa specialized hospital, Addis Ababa University, Addis Ababa, Ethiopia. A total of 81 female breast cancer patients who were on adjuvant tamoxifen were enrolled. These patients had completed a full course of chemotherapy and were on tamoxifen 20 mg/day for at least three months. None of the study participants were taking any known CYP2D6 enzyme inhibitor as co-medication. The study protocol was approved by the Institutional Review Board (IRB) of the College of Health Sciences, Addis Ababa University (AAU) (Ref No: 011/16/2016), the Armauer Hansen Research Institute Ethical Review Committee (AAERC) (Ref No: PO26/16) and the Ethiopian National Research Ethics Review Committee (NRERC) (Ref No: 3.10/235/2017). Signed informed consent was obtained from individual study participants prior to study enrolment. Patients’ demographic, clinical and tumor characteristics including age, menopausal status, performance status, weight, height, body mass index (BMI), histologic type of the tumor, degree of differentiation, tumor size, lymph node involvement, hormone receptor status and co-morbidity status were collected.
Blood samples were collected in EDTA tube, centrifuged at 2500 g for 10 minutes, and the separated plasma was stored at −80 °C until analysis. Tamoxifen (Tam) and its major metabolites N-desmethyltamoxifen (NDM), (Z)-4-hydroxytamoxifen (4-HT), and (Z)-endoxifen (E) were quantified in the TDM Laboratory, Department of Clinical Pharmacology, Karolinska Institutet (Stockholm, Sweden), by ultra-high-performance liquid chromatography (UHPLC) followed by electrospray tandem mass spectrometry (LC-MS/MS). Briefly, 400 µL internal standard solution (containing 2 ng/mL of Z/E-endoxifen-d5, and 4-OH-tamoxifen-d5, and 20 ng/mL of N-desmethyl-tamoxifen-d5, and tamoxifen-d5) was added to 200 µL of thawed plasma samples and mixed for 10 minutes in a micro plate shaker (Vx-2400 Multitube mixer, Troemner, Philadelphia, USA), followed by centrifugation at 3400 rpm at 4 °C for 10 min. The supernatant was then transferred to new glass vial and evaporated to dryness using vacuum centrifuge. The residue was dissolved in 50 µL methanol over a microplate shaker for 10 min and the resulting solution was then centrifuged at 3400 rpm for 10 min at 4 °C. Ten microliter (10 µL) of the solution was injected into the LC system (Dionex Ultimate 3000, UHPLC focused, Thermo Scientific, California, USA) coupled with a mass spectrometer (TSQ Quantiva, Thermo Scientific). Separation occurred on an Accucore C-18 column (150 × 2.1 mm, Thermo Scientific). The mobile phase for gradient elution consisted of solution A (10 mmol/L ammonium formate with 0.005% formic acid in water) and solution B (10 mmol/L ammonium formate with 0.005% formic acid in 99% methanol). The LC conditions were: column oven temperature of 40 °C, flow rate of 0.50 mL/min, autosampler temperature of 10 °C. Detection was in positive ion mode using electrospray ionization and monitored using Trace Finder software (Thermo Scientific). Under this condition, the retention times were 3.25, 3.26, 3.38, 4.03, and 4.11 min for E-endoxifen, Z-endoxifen, 4-OH-tamoxifen, N-desmethyltamoxifen, and tamoxifen, respectively. Calibration curves were constructed by plotting the ratio of the area of the compound and the internal standard against the standard analyte concentration. Three quality control (QC) samples involving, (i) low-level QC [QCL] (0.3 ng/mL of E and 4-HT and 3 ng/mL of NDM and Tam, (ii) mid-level QC [QCM] (8 ng/mL of E and 4-HT and 80 ng/mL of NDM and Tam), and (iii) high level QC [QCH] (80 ng/mL of E and 4-HT and 800 ng/mL of NDM and Tam) were also included at each run.
Descriptive statistics were computed to explore the demographic characteristics, clinical profiles, genotype frequencies of participants. Chi-square test was used to compare the observed and expected genotype frequency according to Hardy–Weinberg equilibrium. […]

For data set [2] the following is noted: cited from earlier work.
For the next data set, the system named is estrogen receptor (ER). More on the design: method as in PMID 21451508. To be noted: endoxifen level 13 nM; cited from earlier work.
Details of data set [3]: method as in PMID 21430657. Conditions: endoxifen concentration >5.97 ng/mL; cited from earlier work.
The mark [4] stands for this setting: UGT2B15 c.1568A>C (rs4148269) wild type genotype.
[5] abbreviates: ABCB1 c.4036A>G (rs3842) wild type genotype.
[6] abbreviates: carriers of the G allele for ABCB1 c.4036A>G (rs3842).

Where two headings read alike, the source gives them in different places. Some results are limits rather than exact numbers.

Regarding `CC/C(=C(\c1ccccc1)c1ccc(OCCN(C)C)cc1)c1ccccc1` [Tamoxifen], in data set [1], the “Plasma concentration (median + IQR)” value is 138 (105–200.5) ng/mL. Further, the Median plasma concentration was 173.8 ng/mL in data set [1] (setting [4]) and 125.9 ng/mL in data set [1] (patients with at least one variant allele for UGT2B15 c.1568A>C (rs4148269)). Moreover, in data set [1] (the 81 patients included in the analysis), the “Plasma tamoxifen concentration of all included patients” value is given as above 150 nM.

For the compound `CC/C(=C(\c1ccc(O)cc1)c1ccc(OCCN(C)C)cc1)c1ccccc1` [4-Hydroxy-tamoxifen, 4-hydroxy-tamoxifen], the “Plasma concentration (median + IQR)” value in data set [1] was 3.04 (2.15–4.0) ng/mL; in data set [1] (listed as 4-HT), 3.04 ng/mL. Further, the “Metabolic ratio of 4-Hydroxy-tamoxifen to tamoxifen, MR 4-HT/Tam (median + IQR)” value in data set [1] (81 patients, plasma) is 0.022 (0.016–0.029).

With `CC/C(=C(\c1ccccc1)c1ccc(OCCNC)cc1)c1ccccc1` [N-Desmethyl-tamoxifen, N-desmethyltamoxifen], the “Plasma concentration (median + IQR)” value in data set [1] is listed as 257 (185.5–343) ng/mL. Moreover, the “Metabolic ratio of N-desmethyl-tamoxifen to tamoxifen, MR NDM/Tam (median + IQR)” value in data set [1] (human, in vivo) is on record as 1.81 (1.51–2.26).

For the compound `CC/C(=C(\c1ccc(O)cc1)c1ccc(OCCNC)cc1)c1ccccc1` [Z-Endoxifen, (Z)-endoxifen], in data set [2] (CYP2D6 PMs, threshold 5.9 ng/mL), the “Proportion of PMs still able to generate therapeutic concentrations of endoxifen” value is 24%. The “Proportion of CYP2D6 PMs below endoxifen level of 13 nM” value in data set [2] (CYP2D6 poor metabolizers) is recorded as 93%. Also, the “Endoxifen plasma concentration lower than without CYP2D6 inhibitors” value was 38% in data set [2] (IMs on CYP2D6 inhibitors vs IMs not on CYP2D6 inhibitors) and 58% in data set [2] (NMs taking CYP2D6 inhibitors vs NMs not on CYP2D6 inhibitors). Also, the results for the “Proportion of patients unable to attain therapeutic threshold for endoxifen” value in data set [2] (Sweden) and in data set [2] (U.S.) were 30% and 20%, respectively. Also, the “Occupancy of the estrogen receptor (ER) in vitro” value in the data set with estrogen receptor (ER) is listed as 90%. Besides, the “Median endoxifen concentration relative to 4-HT” value in data set [1] (7.94 vs 3.04 ng/mL) came to 2.6 times. For the same compound, the “Plasma concentration (median + IQR)” value in data set [1] is 7.94 (4.68–13.75) ng/mL; in data set [1] (listed as endoxifen), 7.94 ng/mL. In addition, in data set [1] (81 patients, plasma), the “Metabolic ratio of endoxifen to 4-hydroxy-tamoxifen, MR E/4-HT (median + IQR)” value is 2.85 (2.10–3.73). Besides, in data set [1] (81 patients, plasma), the “Metabolic ratio of endoxifen to N-desmethyl-tamoxifen, MR E/NDM (median + IQR)” value is reported as 0.038 (0.021–0.06). The “MR E/4-HT” value in data set [1] (setting [5]) turned out to be 3.02; in data set [1] (setting [6]), 2.52. Besides, the “MR E/NDM” value in data set [1] (setting [5]) was determined as 0.041; in data set [1] (setting [6]), 0.022. Moreover, the results for the “Patients with low endoxifen concentration (<5.9 ng/mL) / patients in group” value in data set [1] (CYP2D6 IM/IM diplotype), in data set [1] (CYP2D6 IM/PM diplotype) and in data set [1] (CYP2D6 PM/PM diplotype) were 1/1, 3/3 and 1/1, respectively. Also, the “Proportion of patients with low endoxifen concentration (<5.9 ng/mL)” value in data set [1] (CYP2D6 NM/IM diplotype (5/12)) is recorded as 41.7%; in data set [1] (CYP2D6 NM/NM diplotype (11/35)) it was 31.4%; in data set [1] (CYP2D6 NM/PM diplotype (6/9)) it was 66.7%; in data set [1] (all 81 patients), 35.8%. Further, the “Median E/4-HT ratio” value in data set [1] (setting [4]) is 2.06; in data set [1] (carriers of C allele for UGT2B15 c.1568A>C (rs4148269)), 2.96. The “Lower risk of additional breast cancer events” value in data set [3] is 30%.
